For this assay, the target named is C-X-C chemokine receptor type 4 (Homo sapiens, UniProt P61073). Briefly: Displacement of fluorescently-labeled-TZ14011 from CXCR4 in human Jurkat cells incubated for 30 mins by fluorescence analysis. It counts as cell-based.

The values below come from ChEMBL document CHEMBL3627622, “Exploration of labeling by near infrared dyes of the polyproline linker for bivalent-type CXCR4 ligands” (Bioorg Med Chem, 2015).

The structures appear in SMILES notation.

As a reminder, the IC50 is the concentration needed to halve the response being measured. A higher IC50 goes with weaker potency.

Sequence of C-X-C chemokine receptor type 4 (P61073 whole entry): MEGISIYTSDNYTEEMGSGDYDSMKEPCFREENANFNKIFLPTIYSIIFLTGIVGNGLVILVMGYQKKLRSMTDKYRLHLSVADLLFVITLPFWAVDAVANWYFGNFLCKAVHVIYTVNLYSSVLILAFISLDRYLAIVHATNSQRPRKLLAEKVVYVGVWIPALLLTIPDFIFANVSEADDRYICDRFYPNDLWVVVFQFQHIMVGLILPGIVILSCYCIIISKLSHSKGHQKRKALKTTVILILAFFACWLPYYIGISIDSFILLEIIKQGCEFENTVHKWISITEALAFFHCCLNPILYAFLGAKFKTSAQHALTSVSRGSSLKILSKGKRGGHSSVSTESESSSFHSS

As for `CC(=O)N[C@@H](CCCCNC(=O)CSC[C@H]1NC(=O)[C@H](Cc2ccc3ccccc3c2)NC(=O)[C@H](CCCNC(=N)N)NC(=O)[C@H](CCCNC(=N)N)NC(=O)[C@@H](Cc2ccc(O)cc2)NC1=O)C(=O)N1CCC[C@H]1C(=O)N1CCC[C@H]1C(=O)N1CCC[C@H]1C(=O)N1CCC[C@H]1C(=O)N1CCC[C@H]1C(=O)N1CCC[C@H]1C(=O)N1CCC[C@H]1C(=O)N1CCC[C@H]1C(=O)N1CCC[C@H]1C(=O)N1CCC[C@H]1C(=O)N1CCC[C@H]1C(=O)N1CCC[C@H]1C(=O)N1CCC[C@H]1C(=O)N1CCC[C@H]1C(=O)N1CCC[C@H]1C(=O)N1CCC[C@H]1C(=O)N1CCC[C@H]1C(=O)N1CCC[C@H]1C(=O)N[C@@H](CCCCNC(=O)CS[C@H]1NC(=O)[C@H](Cc2ccc3ccccc3c2)NC(=O)[C@H](CCCNC(=N)N)NC(=O)[C@H](CCCNC(=N)N)NC(=O)[C@@H](Cc2ccc(O)cc2)NC1=O)C(N)=O`, the IC50 came to 44 nM. To `[N-]=[N+]=NCCCCCC(=O)NCCCC(=O)N[C@@H](CCCCNC(=O)CSC[C@H]1NC(=O)[C@H](Cc2ccc3ccccc3c2)NC(=O)[C@H](CCCNC(=N)N)NC(=O)[C@H](CCCNC(=N)N)NC(=O)[C@@H](Cc2ccc(O)cc2)NC1=O)C(=O)N1CCC[C@H]1C(=O)N1CCC[C@H]1C(=O)N1CCC[C@H]1C(=O)N1CCC[C@H]1C(=O)N1CCC[C@H]1C(=O)N1CCC[C@H]1C(=O)N1CCC[C@H]1C(=O)N1CCC[C@H]1C(=O)N1CCC[C@H]1C(=O)N1CCC[C@H]1C(=O)N1CCC[C@H]1C(=O)N1CCC[C@H]1C(=O)N1CCC[C@H]1C(=O)N1CCC[C@H]1C(=O)N1CCC[C@H]1C(=O)N1CCC[C@H]1C(=O)N1CCC[C@H]1C(=O)N1CCC[C@H]1C(=O)N[C@@H](CCCCNC(=O)CS[C@@H]1NC(=O)[C@H](Cc2ccc3ccccc3c2)NC(=O)[C@H](CCCNC(=N)N)NC(=O)[C@H](CCCNC(=N)N)NC(=O)[C@@H](Cc2ccc(O)cc2)NC1=O)C(N)=O` belongs 86 nM.
